# Reference: ChEMBL document CHEMBL1201862, “PubChem BioAssay data set” (2004)
# Active and inactive are the calls of the source.
# Experiments:
# Vero [1] = experiment: West Nile virus antiviral activity, cell-based, CPE readout (AID 1621); format: functional; settings: Chlorocebus sabaeus
# Vero [2] = experiment: host cell cytotoxicity of antiviral hits, dose response, cytotoxicity control for West Nile virus antiviral project, secondary assay (AID 1650); format: functional; settings: Chlorocebus sabaeus
# [3] = biological target: Solute carrier family 12 member 2/member 5 (Homo sapiens, UniProt P55011+Q9H2X9); experiment: KCC2 and NKCC1 inhibition by rubidium flux, cell-based, NKCC1 counter-screen (AID 1734); format: functional, HEK293
# [4] = biological target: Peroxisome proliferator-activated receptor gamma/Nuclear receptor coactivator 3 (Homo sapiens, UniProt P37231); format: functional;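 note: agonist potency for raising coactivator recruitment to the receptor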
# Genome polyprotein = Genome polyprotein (Hepatitis C virus, UniProt Q2Q167); experiment: HCV core protein dimerization inhibitors, dose response, biochemical, TR-FRET (AID 2159); parameters: species or system Hepacivirus hominis;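 note: blocks dimerization of HCV core protein measured by TR-FRET between tagged core106 pairs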
# Genome polyprotein, sequence (Q2Q167 whole entry): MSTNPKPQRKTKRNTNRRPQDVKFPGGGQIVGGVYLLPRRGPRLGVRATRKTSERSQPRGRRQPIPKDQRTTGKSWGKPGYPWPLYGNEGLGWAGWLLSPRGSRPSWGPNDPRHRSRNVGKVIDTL
# [5] = biological target: Peroxisome proliferator-activated receptor gamma/Nuclear receptor coactivator 2 (Homo sapiens, UniProt P37231); format: functional;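 note: agonist potency for raising coactivator recruitment to the receptor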
# [6] = biological target: Peroxisome proliferator-activated receptor gamma/Nuclear receptor coactivator 1 (Homo sapiens, UniProt P37231); format: functional;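 note: agonist potency as compounds enhance coactivator SRC-1 recruitment to PPARgamma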
# NADPH oxidase 1 [7] = biological target: T1, NADPH oxidase 1 (Homo sapiens, UniProt Q9Y5S8); experiment: Luminescence-based cell-based dose response assay to identify inhibitors of NADPH oxidase 1 (NOX1).; format: functional
# T1 sequence (Q9Y5S8 whole entry): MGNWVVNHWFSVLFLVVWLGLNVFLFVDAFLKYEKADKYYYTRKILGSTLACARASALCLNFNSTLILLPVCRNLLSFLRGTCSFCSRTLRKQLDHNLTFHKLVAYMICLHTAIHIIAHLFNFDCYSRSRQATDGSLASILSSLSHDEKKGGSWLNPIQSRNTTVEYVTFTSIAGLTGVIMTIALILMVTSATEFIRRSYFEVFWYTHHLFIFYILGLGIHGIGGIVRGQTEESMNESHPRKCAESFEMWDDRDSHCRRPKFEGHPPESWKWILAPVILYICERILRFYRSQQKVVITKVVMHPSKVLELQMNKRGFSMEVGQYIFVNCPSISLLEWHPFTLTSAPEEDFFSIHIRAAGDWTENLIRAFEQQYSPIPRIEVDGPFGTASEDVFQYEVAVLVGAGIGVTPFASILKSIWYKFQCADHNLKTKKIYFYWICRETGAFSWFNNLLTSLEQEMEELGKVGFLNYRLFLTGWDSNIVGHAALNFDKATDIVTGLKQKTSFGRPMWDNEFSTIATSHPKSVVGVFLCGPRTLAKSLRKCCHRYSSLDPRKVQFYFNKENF
# [8] = cytotoxicity toward NIH3T3 fibroblasts, dose response, counter-screen, cell-based, ATP luminescence, mouse fibroblasts (AID 2010); format: functional;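 note: cells exposed to compound for about 90 hours before reading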
# NADPH oxidase 1 [9] = biological target: T1, NADPH oxidase 1; format: functional, cell-based
# [10] = inhibitors of intracellular T. cruzi replication, confirmation, NIH3T3 host cells, beta-gal luminescence (AID 2044); format: functional, cell-based;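 note: intracellular parasites grown in NIH/3T3 mouse fibroblasts as host cells; luminescent beta-galactosidase reporter signal from transgenic T. cruzi replicating inside host cells; inhibitors lower the luminescence signal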
# [11] = biological target: T2, Rac GTPase-activating protein 1 (Homo sapiens, UniProt Q9H0H5); experiment: MgcRacGAP GTPase-activating activity inhibitors, confirmation, biochemical, ADP Hunter fluorescence, primary and confirmatory (AID 624330); format: functional
# T2 sequence (Q9H0H5 whole entry): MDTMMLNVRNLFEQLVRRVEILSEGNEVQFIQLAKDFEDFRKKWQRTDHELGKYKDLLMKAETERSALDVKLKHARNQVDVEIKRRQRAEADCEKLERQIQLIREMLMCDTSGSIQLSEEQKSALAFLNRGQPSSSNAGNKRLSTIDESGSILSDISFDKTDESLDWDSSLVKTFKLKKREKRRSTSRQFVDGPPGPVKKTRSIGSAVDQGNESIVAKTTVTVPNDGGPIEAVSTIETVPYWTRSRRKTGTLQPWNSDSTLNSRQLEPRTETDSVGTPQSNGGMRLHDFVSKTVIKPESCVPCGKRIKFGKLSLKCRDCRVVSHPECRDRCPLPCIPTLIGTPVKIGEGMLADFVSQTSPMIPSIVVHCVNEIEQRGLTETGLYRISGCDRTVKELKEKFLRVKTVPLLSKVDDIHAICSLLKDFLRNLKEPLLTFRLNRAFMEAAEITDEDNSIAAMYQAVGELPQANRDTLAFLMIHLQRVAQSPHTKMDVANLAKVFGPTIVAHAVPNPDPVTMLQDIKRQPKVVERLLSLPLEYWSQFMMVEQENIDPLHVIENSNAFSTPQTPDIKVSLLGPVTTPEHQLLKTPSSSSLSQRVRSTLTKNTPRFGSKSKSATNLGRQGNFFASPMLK
# [12] = biological target: Neuropeptide Y receptor type 2 (Homo sapiens, UniProt P49146); format: functional, cell-based;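 note: HEK293 cells expressing the receptor and a CNG channel; stimulus was NPY near EC95 followed by isoproterenol to raise cAMP; antagonist potency measured as restoring cAMP signal that NPY suppresses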
# Neuropeptide Y receptor type 2, sequence (P49146 whole entry): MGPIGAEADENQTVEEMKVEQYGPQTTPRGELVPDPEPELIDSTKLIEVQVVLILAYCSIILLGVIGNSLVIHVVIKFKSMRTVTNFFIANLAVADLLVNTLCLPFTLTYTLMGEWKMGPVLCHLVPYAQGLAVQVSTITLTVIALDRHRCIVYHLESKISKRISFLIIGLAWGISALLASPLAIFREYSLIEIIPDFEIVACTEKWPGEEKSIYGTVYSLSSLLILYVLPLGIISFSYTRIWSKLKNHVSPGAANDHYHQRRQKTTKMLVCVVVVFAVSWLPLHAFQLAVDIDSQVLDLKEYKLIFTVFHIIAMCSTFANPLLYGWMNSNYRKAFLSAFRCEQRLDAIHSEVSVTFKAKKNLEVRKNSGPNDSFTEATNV
# [13] = biological target: Neuropeptide Y receptor type 1 (Homo sapiens, UniProt P25929); format: functional;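 note: HEK293 cells with a CNG channel challenged with NPY then isoproterenol; potency as antagonist that reverses NPY suppression of cAMP signal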
# SUMO-activating enzyme = SUMO-activating enzyme (Homo sapiens, UniProt Q9UBT2); experiment: SUMOylation inhibitor hit validation, confirmation, SUMOylation inhibitor project, biochemical, AlphaScreen (AID 2018); format: functional
# SUMO-activating enzyme, sequence (Q9UBE0 whole entry): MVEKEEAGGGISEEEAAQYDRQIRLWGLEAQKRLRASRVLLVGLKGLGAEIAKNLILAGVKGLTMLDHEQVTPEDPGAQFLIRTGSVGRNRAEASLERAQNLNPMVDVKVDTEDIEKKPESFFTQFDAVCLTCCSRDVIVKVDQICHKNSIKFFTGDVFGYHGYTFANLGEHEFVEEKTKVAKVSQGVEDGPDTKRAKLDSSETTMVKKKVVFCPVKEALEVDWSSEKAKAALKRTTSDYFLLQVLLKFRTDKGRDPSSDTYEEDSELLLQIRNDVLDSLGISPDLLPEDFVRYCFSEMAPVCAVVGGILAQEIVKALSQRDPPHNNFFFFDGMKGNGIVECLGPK
# SUMO-activating enzyme, sequence (Q9UBT2 whole entry): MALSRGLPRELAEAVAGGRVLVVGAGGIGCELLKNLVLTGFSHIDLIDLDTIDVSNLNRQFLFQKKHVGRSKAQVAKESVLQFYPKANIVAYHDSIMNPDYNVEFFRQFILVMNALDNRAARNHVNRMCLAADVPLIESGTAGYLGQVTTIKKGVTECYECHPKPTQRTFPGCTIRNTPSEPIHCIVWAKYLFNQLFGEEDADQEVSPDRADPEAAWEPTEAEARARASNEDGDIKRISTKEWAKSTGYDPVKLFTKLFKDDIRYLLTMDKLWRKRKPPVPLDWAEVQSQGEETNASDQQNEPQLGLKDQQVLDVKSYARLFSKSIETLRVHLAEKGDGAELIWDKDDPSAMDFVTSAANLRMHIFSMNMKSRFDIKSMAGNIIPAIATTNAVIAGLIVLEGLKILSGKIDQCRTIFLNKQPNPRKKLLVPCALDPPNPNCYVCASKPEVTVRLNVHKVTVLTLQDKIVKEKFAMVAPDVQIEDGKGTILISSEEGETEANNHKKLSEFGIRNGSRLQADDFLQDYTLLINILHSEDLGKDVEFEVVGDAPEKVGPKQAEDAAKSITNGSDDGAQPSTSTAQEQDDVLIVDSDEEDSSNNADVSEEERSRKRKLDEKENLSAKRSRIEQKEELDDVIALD
# [14] = biological target: ATP-sensitive inward rectifier potassium channel 1 (Homo sapiens, UniProt P48048); experiment: ROMK inhibition by analog compounds, SAR follow-up, cell-based, thallium flux, analog library (AID 435017); format: functional
# [15] = biological target: Disintegrin and metalloproteinase domain-containing protein 17 (Homo sapiens, UniProt P78536); experiment: exosite inhibitors of ADAM17, dose response, biochemical (AID 743260)
# Disintegrin and metalloproteinase domain-containing protein 17, sequence (P78536 whole entry, the tested form may be a part): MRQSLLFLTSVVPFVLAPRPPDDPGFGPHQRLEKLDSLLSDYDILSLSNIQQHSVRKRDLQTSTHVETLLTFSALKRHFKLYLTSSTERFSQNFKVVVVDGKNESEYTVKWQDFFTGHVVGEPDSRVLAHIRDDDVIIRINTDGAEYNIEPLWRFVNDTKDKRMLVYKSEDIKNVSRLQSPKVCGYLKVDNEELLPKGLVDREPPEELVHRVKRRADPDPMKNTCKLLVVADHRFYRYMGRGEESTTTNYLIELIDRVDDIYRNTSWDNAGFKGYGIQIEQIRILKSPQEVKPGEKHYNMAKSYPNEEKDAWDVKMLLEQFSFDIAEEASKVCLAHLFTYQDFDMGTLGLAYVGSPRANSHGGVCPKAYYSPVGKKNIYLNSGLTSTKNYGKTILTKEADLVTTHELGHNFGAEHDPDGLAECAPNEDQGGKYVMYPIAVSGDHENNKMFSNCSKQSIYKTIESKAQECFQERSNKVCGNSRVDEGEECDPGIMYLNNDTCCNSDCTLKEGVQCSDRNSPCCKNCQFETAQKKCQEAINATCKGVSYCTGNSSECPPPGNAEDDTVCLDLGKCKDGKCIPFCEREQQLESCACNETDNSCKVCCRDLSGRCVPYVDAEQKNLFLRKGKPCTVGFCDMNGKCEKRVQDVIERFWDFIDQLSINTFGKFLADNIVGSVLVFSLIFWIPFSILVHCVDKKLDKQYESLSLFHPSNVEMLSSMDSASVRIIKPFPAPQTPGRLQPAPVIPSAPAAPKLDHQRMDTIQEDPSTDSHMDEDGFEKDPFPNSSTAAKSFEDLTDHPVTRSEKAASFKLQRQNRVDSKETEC
# [16] = biological target: 5-hydroxytryptamine receptor 1E (Homo sapiens, UniProt P28566); experiment: Counterscreen assay for S1P3 antagonists: Dose response cell-based high throughput screening assay to identify antagonists of the 5-Hydroxytryptamine Receptor Subtype 1E (5HT1E). [Related pubchem assays: 1429, 485 ]; format: functional
# [17] = biological target: Sphingosine 1-phosphate receptor 3 (Homo sapiens, UniProt Q99500); experiment: Dose response cell-based high throughput screening assay for antagonists of the Sphingosine 1-Phosphate Receptor 3 (S1P3). [Related pubchem assays: 1429, 485 ]; format: functional
# [18] = ADAM10 protease inhibitors, dose response, selectivity assay for ADAM17 exosite inhibitor project, biochemical, FRET peptide substrate, recombinant human ADAM10 (AID 743259);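 note: ADAM10 enzyme cleaving a FRET peptide substrate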
# Cytochrome P450 2C9 = Cytochrome P450 2C9 (Homo sapiens, UniProt P11712)
# [19] = biological target: Luciferin 4-monooxygenase (Photinus pyralis, UniProt P08659); experiment: Counter Screen for Luciferase-based Assay Positives. [Related pubchem assays: 620, 618, 411 ]
# HT-1080 = experiment: cytotoxicity in HT1080 fibrosarcoma cells, cell-based, fluorescence readout (AID 620); format: functional; settings: Homo sapiens
# Cytochrome P450 2D6 = Cytochrome P450 2D6 (Homo sapiens, UniProt P10635);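 note: CYP2D6 member of a cytochrome P450 panel assay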
# [20] = biological target: Voltage-gated inwardly rectifying potassium channel KCNH2 (Homo sapiens, UniProt Q12809); experiment: hERG protection from proarrhythmic block, potency, dose response, cell-based, thallium flux (AID 2121); format: ADME
# cells [21] = format: functional, cell-based
# cells [22] = format: functional, cell-based; remark: listed apart in the source
# [23] = C. albicans growth with fluconazole, confirmation, fluorescence, retest (AID 2467); format: functional, cell-based
# [24] = NIH-3T3 fibroblast cytotoxicity, dose response, cytotoxicity control, cell-based, fluorescence, Alamar Blue, secondary assay (AID 2327); format: functional;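 note: NIH-3T3 mouse fibroblasts cultured with fluconazole at 8 µg/mL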
# [25] = biological target: Aryl hydrocarbon receptor (Homo sapiens, UniProt P35869); experiment: Luminescence-based cell-based high throughput dose response assay for activators of the Aryl Hydrocarbon Receptor (AHR). [Related pubchem assays: 2796 (Primary screen (AHR activators in singlicate)), 2845 (Confirmation screen (AHR activators in triplicate)), 434939 (Counterscreen (PXR activators in triplicate)), 2804 (Summary (AHR activators))]; format: ADME
# Aryl hydrocarbon receptor, sequence (P35869 whole entry): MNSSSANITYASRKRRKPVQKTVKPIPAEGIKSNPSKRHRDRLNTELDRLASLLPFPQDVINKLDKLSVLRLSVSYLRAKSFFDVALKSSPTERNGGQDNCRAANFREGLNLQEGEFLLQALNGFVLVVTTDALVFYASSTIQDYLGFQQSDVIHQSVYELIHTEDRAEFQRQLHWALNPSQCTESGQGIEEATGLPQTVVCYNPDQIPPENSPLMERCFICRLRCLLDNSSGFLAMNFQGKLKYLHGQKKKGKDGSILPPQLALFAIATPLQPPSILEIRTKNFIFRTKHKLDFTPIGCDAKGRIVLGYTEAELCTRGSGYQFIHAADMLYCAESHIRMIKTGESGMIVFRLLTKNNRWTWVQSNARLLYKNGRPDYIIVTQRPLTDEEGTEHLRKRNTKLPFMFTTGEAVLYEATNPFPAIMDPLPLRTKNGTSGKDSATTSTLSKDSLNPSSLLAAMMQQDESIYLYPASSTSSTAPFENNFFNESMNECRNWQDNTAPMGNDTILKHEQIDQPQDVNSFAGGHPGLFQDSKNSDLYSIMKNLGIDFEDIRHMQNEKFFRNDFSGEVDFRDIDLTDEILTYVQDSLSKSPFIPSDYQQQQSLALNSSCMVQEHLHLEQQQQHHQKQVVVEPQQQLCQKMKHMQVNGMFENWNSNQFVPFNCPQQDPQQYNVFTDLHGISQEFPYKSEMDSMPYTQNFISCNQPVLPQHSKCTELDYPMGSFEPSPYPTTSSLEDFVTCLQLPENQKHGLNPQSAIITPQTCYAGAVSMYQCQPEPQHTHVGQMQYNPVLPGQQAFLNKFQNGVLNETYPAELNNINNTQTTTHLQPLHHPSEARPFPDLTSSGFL
# Mucolipin-3 = Mucolipin-3 (Homo sapiens, UniProt Q8TDD5); experiment: Dose response cell-based high-throughput screening assay for agonists of the transient receptor potential channel ML3 (TRPML3). [Related pubchem assays: 1526, 1424, 1448 ]; format: functional
# [26] = biological target: T3, Long-chain-fatty-acid--AMP ligase FadD28 (Mycobacterium tuberculosis, UniProt P9WQ59); experiment: Fluorescence polarization aasay to screen for inhibitors that compete for the binding of FadD28 to a bisubstrate Measured in Biochemical System Using Plate Reader - 2147-01_Inhibitor_Dose_CherryPick_Activity.; format: functional, Mycobacterium tuberculosis H37Rv
# T3 sequence (P9WQ59 whole entry): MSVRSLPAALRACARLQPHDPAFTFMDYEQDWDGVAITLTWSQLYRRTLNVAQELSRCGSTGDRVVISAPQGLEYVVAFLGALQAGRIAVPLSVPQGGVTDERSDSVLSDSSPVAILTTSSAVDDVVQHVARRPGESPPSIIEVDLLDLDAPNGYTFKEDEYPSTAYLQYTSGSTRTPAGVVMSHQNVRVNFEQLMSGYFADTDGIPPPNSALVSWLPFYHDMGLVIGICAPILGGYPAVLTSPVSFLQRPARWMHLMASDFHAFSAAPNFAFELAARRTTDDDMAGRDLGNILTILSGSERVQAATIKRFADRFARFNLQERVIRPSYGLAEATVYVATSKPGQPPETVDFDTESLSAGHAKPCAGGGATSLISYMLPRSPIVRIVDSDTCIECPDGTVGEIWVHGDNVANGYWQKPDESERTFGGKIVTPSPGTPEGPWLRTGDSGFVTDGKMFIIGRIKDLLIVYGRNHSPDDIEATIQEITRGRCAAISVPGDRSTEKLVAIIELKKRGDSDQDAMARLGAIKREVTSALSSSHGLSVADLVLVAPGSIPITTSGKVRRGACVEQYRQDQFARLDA
# Ion channel NompC = Ion channel NompC (Danio rerio, UniProt Q7T1G6); experiment: Fluorescence counterscreen assay for TRPML3 agonists: dose response cell-based high-throughput screening assay to identify agonists of the transient receptor potential channel N1 (TRPN1). [Related pubchem assays: 1526, 1424, 1448 ]; format: functional
# [27] = biological target: Potassium voltage-gated channel subfamily KQT member 2 (Rattus norvegicus, UniProt O88943); experiment: Mode of action assay - current amplitude concentration response for derivatives of ZTZ240, a potentiator of KCNQ2 potassium channels. [Related pubchem assays: 2258 (Summary assay for the KCNQ2 potentiators.), 2239 (Primary HTS assay for KCNQ2 potentiators with 305606 compounds tested, and 1644 are found to be active.)]; format: functional
# Potassium voltage-gated channel subfamily KQT member 2, sequence (O88943 whole entry): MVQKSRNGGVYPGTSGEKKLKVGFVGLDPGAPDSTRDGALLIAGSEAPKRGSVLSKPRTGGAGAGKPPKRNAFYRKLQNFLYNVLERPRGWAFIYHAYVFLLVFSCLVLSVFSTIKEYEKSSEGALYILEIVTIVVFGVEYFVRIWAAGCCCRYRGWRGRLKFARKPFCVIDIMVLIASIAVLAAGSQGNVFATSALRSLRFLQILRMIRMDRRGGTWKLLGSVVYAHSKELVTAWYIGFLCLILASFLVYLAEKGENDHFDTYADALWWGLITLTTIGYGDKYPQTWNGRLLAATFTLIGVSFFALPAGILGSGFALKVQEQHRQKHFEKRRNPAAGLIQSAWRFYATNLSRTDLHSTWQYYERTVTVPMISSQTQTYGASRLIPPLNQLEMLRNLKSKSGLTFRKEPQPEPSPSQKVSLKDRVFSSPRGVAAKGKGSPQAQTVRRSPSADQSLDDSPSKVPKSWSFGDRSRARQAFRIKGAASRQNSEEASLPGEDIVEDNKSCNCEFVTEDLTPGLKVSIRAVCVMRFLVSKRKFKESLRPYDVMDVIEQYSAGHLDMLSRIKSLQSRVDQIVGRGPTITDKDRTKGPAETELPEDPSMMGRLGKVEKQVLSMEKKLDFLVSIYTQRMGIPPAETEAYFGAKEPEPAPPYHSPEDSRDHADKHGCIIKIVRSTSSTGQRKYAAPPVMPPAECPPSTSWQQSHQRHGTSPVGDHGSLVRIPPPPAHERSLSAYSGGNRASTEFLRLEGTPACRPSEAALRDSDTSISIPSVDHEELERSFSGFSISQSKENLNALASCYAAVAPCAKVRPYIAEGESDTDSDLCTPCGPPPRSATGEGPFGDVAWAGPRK
# cells [28] = experiment: cells
# [29] = biological target: Photoreceptor-specific nuclear receptor (Homo sapiens, UniProt Q9Y5X4); format: functional, cell-based;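 note: CHO-S cells with Gal4-NCOR and VP16-NR2E3 two-hybrid luciferase reporter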
# Photoreceptor-specific nuclear receptor, sequence (Q9Y5X4 whole entry, the tested form may be a part): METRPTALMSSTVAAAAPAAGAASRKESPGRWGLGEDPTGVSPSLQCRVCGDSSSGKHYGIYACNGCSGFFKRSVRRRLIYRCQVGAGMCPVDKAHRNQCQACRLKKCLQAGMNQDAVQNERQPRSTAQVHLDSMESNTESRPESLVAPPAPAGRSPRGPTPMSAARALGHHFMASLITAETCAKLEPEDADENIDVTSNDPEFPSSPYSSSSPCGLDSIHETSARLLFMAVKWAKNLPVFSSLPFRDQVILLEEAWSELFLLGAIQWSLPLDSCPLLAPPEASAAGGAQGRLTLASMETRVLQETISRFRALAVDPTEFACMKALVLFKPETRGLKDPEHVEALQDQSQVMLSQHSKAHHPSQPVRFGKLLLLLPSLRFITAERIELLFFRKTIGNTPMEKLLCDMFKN
# [30] = HEp-2 cell cytotoxicity, dose response, cytotoxicity control for RSV inhibitor project, HTS (AID 2410); format: functional; settings: human respiratory syncytial virus
# [31] = biological target: T4, Mannose-6-phosphate isomerase (Homo sapiens, UniProt P34949); experiment: human PMI inhibitors, high substrate, primary screen, biochemical, fluorescence intensity, high mannose 6-phosphate (AID 1220)
# T4 sequence (P34949 whole entry): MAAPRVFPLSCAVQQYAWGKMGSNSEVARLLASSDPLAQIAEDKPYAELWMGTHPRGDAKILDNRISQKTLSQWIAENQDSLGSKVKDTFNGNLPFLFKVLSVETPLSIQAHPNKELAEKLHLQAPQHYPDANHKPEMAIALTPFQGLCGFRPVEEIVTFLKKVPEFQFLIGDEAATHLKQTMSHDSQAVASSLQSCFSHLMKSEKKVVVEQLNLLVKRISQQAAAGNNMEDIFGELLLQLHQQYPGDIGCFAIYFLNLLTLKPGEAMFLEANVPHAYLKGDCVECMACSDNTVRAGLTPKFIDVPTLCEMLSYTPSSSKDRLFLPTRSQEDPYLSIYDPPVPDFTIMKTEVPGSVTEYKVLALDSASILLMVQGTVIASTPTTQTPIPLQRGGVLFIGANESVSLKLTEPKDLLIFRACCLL
# [32] = biological target: T4, Mannose-6-phosphate isomerase; experiment: inhibitors of human PMI, primary screen, biochemical, fluorescence intensity, coupled assay (AID 1209)
# [33] = Luminescence-based dose response cell-based high throughput screening assay for cytotoxic compounds using the IEC-6 intestinal epithelial cell line. [Related pubchem assays: 1858 (Summary AID.), 1825 (Counterscreen.), 1907 (Confirmation screen.)]; format: functional
# [34] = A549 cell cytotoxicity, dose response, CellTiter-Glo luminescence, dry powder, set 17 (AID 1117284); format: functional, cell-based
smiles,measurement,setting,value
CCC1CCCCN1CCCNC(=O)c1cc2c(Cl)nc3ccccc3c2s1 (stereo not drawn),IC50,Vero [1],8.75 µM (active)
same,CC50,Vero [2],12.7 µM (active)
O=C(Cn1cnc2c(nnn2Cc2ccccc2)c1=O)c1ccc(Cl)cc1,IC50,[3],1.2 µM (active)
Cc1cc(OCC(=O)Nc2cc(-c3nn4c(C)nnc4s3)ccc2C)ccc1Cl,EC50,[4],8.97 µM (active)
same,IC50,Genome polyprotein,> 49.8 µM (not active)
same,EC50,[5],10.1 µM (not active)
same,EC50,[6],9.05 µM (active)
CCOC(=O)Nc1ccc2c(c1)Nc1ccccc1S2,IC50,NADPH oxidase 1 [7],54 nM (active)
same,EC50,[8],> 60 µM (not active)
same,IC50,NADPH oxidase 1 [9],915 nM (active)
same,EC50,[10],< 100 nM (active)
same,IC50,[11],45 µM (active)
COc1cccc(-c2nc(-c3ccc(NC(=O)Cc4ccccc4OC)cc3)no2)c1,IC50,[12],733 nM (active)
same,IC50,[13],> 35 µM (not active)
O=[N+]([O-])c1ccc2[nH]c(CCCc3nc4cc([N+](=O)[O-])ccc4[nH]3)nc2c1,IC50,SUMO-activating enzyme,> 100 µM (inactive)
same,IC50,[14],6.53 µM (active)
COc1ccc(C(CC(=O)c2ccc(C)cc2)Nc2ccc([N+](=O)[O-])cc2)cc1 (stereo not drawn),IC50,[15],> 69.5 µM (inactive)
same,IC50,[16],> 50 µM (not active)
same,IC50,[17],2.05 µM (active)
same,IC50,[18],26.8 µM (inactive)
COc1ccc(-c2nsc3c(N4CCCCC4)ncnc23)cc1,AC50,Cytochrome P450 2C9,5.01 µM (inconclusive)
same,EC50,[19],4.6 µM (active)
same,EC50,HT-1080,> 50 µM (not active)
same,AC50,Cytochrome P450 2D6,15.8 µM (inconclusive)
COc1ccc(NC(=O)C(=O)NNC(=O)c2ccc(Cl)cc2Cl)cc1,EC50,[20],500 nM (active)
same,EC50,cells [21],> 350 µM (not active)
same,EC50,cells [22],> 350 µM (not active)
same,EC50,[23],2.28 µM (active)
same,EC50,[24],> 150 µM (inactive)
COc1ccccc1NC(=O)Nc1cccnc1,EC50,[25],2.25 µM (active)
CC1CCCC(C)N1C(=C(Cl)Cl)C(=C1SCCS1)[N+](=O)[O-] (stereo not drawn),EC50,Mucolipin-3,6.91 µM (active)
same,AC50,[26],> 100 µM (inactive)
same,EC50,Ion channel NompC,> 29.9 µM (not active)
O=C(Nc1ccc(Br)nc1)c1ccc(F)c(F)c1,EC50,[27],3.72 µM (active)
Cc1cccc(/C=N/Nc2cc(N3CCOCC3)nc(N3CCOCC3)n2)c1,EC50,cells [28],77 nM (active)
same,IC50,[29],1.88 µM (active)
same,CC50,[30],24.6 µM (active)
same,IC50,[31],> 50 µM (not active)
same,IC50,[32],> 50 µM (not active)
same,EC50,[8],1.6 µM (active)
same,EC50,[10],< 100 nM (active)
same,IC50,[33],692 nM (active)
C[C@H]1CN([C@@H](C)CO)S(=O)(=O)c2ccc(-c3ccc(O)cc3)cc2O[C@H]1CN(C)Cc1ccc(-c2ccccc2)cc1,AC50,[34],> 52 µM (inactive)
